# Tests used:
# DP = molecular target: T1, DP (Homo sapiens, UniProt Q13258); experiment: Millipore Drug Discovery Safety and Liability Panel; assay type: cell-based
# T1 construct: purchased Millipore
# 5-HT1A = molecular target: T2, 5-HT1A (Homo sapiens, UniProt P08908); experiment: as above; assay type: cell-based
# T2 construct: purchased Millipore
# CCR1 = molecular target: T3, CCR1 (Homo sapiens, UniProt P32246); experiment: as above; assay type: cell-based
# T3 construct: purchased Millipore
# T3 sequence (P32246 whole entry): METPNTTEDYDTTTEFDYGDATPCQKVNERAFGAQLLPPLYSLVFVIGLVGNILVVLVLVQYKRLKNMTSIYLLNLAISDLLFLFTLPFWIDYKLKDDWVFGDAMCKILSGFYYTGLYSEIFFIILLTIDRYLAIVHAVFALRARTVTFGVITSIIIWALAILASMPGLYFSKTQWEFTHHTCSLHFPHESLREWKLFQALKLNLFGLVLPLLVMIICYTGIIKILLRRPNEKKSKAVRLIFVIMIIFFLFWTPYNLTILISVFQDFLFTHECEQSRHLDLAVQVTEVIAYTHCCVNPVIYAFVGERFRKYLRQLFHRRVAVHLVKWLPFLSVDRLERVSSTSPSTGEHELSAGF
# H3 = molecular target: T4, H3 (Homo sapiens, UniProt Q9Y5N1); experiment: as above; assay type: cell-based
# T4 construct: purchased Millipore
# ADRB2 = molecular target: T5, ADRB2 (Homo sapiens, UniProt P07550); experiment: as above; assay type: cell-based
# T5 construct: purchased Millipore
# T5 sequence (P07550 whole entry): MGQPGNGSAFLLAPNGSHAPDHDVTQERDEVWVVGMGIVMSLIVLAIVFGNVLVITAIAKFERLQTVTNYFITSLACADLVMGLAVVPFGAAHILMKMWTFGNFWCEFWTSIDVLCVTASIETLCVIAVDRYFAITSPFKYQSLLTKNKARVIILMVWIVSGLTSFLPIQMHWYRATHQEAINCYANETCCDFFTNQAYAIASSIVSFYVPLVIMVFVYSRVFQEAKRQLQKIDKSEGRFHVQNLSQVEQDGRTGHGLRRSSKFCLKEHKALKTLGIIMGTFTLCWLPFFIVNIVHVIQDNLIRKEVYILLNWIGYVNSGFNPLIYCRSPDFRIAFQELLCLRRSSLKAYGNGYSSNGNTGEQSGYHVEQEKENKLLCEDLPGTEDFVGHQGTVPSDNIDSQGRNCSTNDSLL
# [1] = system: mutated forms of all three AKT isoforms containing inactive pleckstrin homology (PH) domains; experiment: Biochemical kinase assay, PH-domain mutants
# C5aR = molecular target: T6, C5aR (Homo sapiens, UniProt P21730); experiment: Millipore Drug Discovery Safety and Liability Panel; assay type: cell-based
# T6 construct: purchased Millipore
# H1 = molecular target: T7, H1 (Homo sapiens, UniProt P35367); experiment: as above; assay type: cell-based
# T7 construct: purchased Millipore
# T7 sequence (P35367 whole entry): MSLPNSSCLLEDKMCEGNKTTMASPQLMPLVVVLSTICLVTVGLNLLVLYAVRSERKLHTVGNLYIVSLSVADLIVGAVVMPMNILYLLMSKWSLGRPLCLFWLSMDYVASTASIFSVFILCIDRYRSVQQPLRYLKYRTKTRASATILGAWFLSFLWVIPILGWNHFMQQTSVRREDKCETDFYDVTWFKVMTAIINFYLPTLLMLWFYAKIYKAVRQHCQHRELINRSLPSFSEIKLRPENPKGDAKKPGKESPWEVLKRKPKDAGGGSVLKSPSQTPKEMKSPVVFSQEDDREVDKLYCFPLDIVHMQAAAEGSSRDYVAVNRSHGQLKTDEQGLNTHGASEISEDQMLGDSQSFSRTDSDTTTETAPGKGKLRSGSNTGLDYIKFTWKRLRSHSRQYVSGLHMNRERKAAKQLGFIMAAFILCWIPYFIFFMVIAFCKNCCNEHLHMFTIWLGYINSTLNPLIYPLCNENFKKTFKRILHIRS
# ADRA1A = molecular target: T8, ADRA1A (Homo sapiens, UniProt P35348); experiment: as above; assay type: cell-based
# T8 construct: purchased Millipore
# T8 sequence (P35348 whole entry): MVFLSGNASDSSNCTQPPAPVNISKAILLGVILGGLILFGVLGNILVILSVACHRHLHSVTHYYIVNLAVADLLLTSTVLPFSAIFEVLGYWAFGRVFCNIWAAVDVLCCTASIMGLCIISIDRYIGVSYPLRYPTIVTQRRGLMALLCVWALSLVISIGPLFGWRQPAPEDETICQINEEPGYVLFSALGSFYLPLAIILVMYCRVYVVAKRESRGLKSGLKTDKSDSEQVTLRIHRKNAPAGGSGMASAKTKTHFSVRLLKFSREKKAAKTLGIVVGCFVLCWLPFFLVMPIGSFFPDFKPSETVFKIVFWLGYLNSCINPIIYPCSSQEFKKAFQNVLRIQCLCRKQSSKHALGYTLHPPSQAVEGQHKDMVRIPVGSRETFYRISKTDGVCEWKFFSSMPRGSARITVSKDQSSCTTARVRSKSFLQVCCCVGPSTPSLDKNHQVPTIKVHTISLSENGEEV
# AT1 = molecular target: T9, AT1 (Homo sapiens, UniProt P30556); experiment: as above; assay type: cell-based
# T9 construct: purchased Millipore
# T9 sequence (P30556 whole entry): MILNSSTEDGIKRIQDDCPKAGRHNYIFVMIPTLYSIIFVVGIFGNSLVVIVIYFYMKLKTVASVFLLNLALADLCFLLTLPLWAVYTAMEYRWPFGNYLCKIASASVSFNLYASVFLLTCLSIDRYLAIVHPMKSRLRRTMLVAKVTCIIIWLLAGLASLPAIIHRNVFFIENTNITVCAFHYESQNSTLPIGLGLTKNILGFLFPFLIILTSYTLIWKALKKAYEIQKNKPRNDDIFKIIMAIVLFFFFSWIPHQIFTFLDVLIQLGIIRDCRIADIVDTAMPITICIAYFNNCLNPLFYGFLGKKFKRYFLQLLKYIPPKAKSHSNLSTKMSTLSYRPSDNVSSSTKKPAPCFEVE
# AKT2 = AKT2 (Homo sapiens, UniProt P31751); experiment: Panel of 450 kinases; assay type: biochemical
# CXCR1 = molecular target: T10, CXCR1 (Homo sapiens, UniProt P25024); experiment: Millipore Drug Discovery Safety and Liability Panel; assay type: cell-based
# T10 construct: purchased Millipore
# T10 sequence (P25024 whole entry): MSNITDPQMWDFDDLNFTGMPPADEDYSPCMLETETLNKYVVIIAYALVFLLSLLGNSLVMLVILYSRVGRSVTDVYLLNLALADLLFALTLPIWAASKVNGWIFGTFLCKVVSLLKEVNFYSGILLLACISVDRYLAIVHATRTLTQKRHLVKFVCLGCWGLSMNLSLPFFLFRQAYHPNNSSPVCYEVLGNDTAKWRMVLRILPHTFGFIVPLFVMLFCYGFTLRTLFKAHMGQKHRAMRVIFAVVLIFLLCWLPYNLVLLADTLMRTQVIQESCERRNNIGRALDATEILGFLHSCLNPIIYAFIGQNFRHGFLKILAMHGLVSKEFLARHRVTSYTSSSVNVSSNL
# AKT3 = AKT3 (Homo sapiens, UniProt Q9Y243); experiment: Panel of 450 kinases; assay type: biochemical
# IP1 = molecular target: T11, IP1 (Homo sapiens, UniProt P43119); experiment: Millipore Drug Discovery Safety and Liability Panel; assay type: cell-based
# T11 construct: purchased Millipore
# T11 sequence (P43119 whole entry): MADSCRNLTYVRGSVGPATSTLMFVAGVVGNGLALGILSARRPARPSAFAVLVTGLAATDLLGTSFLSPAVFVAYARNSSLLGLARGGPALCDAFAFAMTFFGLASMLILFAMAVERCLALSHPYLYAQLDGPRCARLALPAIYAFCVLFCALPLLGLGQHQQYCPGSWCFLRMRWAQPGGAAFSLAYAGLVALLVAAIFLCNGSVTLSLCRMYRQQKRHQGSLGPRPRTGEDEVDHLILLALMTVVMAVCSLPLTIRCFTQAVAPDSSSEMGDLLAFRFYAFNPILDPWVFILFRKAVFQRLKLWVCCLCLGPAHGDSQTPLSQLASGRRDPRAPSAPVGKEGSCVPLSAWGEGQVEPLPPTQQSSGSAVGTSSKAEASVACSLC
# PAC1 = molecular target: T12, PAC1 (Homo sapiens, UniProt P41586); experiment: as above; assay type: cell-based
# T12 construct: Millipore
# full length AKT2 = full length AKT2 (Homo sapiens, UniProt P31751); experiment: Biochemical kinase assay
# D1 = molecular target: T13, D1 (Homo sapiens, UniProt P21728); experiment: Millipore Drug Discovery Safety and Liability Panel; assay type: cell-based
# T13 construct: purchased Millipore
# PAF = molecular target: T14, PAF (Homo sapiens, UniProt P25105); experiment: as above; assay type: cell-based
# T14 construct: Millipore
# CX3CR1 = molecular target: T15, CX3CR1 (Homo sapiens, UniProt P49238); experiment: as above; assay type: cell-based
# T15 construct: purchased Millipore
# T15 sequence (P49238 whole entry): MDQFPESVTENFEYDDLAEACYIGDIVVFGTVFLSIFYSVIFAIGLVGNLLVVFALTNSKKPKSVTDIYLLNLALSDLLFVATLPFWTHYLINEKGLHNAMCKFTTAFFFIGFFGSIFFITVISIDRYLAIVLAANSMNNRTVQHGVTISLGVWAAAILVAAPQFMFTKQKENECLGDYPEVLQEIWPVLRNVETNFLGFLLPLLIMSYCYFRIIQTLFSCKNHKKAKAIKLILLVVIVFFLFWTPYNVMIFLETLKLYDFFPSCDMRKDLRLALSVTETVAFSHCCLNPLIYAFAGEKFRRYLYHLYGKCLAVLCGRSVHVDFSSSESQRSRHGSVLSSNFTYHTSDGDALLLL
# PRP = molecular target: T16, PRP (Homo sapiens, UniProt P49683); experiment: as above; assay type: cell-based
# T16 construct: Millipore
# T16 sequence (P49683 whole entry): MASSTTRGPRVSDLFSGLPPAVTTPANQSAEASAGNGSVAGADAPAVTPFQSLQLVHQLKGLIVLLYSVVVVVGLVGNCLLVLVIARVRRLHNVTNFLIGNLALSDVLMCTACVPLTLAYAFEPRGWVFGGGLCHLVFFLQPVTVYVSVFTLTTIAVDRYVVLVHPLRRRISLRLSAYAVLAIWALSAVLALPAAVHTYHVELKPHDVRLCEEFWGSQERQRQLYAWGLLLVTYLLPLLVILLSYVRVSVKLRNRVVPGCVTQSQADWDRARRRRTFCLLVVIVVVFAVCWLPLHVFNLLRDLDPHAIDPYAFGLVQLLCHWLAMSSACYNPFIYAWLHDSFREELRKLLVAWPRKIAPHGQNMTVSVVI
# FPR1 = molecular target: T17, FPR1 (Homo sapiens, UniProt P21462); experiment: as above; assay type: cell-based
# T17 construct: purchased Millipore
# T17 sequence (P21462 whole entry, species assumed): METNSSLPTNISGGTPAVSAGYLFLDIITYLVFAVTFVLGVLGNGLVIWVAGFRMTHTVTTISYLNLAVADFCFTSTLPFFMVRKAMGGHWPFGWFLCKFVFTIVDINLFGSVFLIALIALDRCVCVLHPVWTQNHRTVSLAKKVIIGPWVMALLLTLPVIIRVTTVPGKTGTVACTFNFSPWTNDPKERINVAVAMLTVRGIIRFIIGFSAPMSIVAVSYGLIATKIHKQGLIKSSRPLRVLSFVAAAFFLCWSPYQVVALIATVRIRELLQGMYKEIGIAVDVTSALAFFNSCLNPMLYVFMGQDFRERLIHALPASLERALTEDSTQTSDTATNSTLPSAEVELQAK
# [2] = read-out: ANTAGONIST mean % inhibition
# [3] = read-out: AGONIST mean % increase in activity
# T2 sequence (P08908 whole entry, species assumed): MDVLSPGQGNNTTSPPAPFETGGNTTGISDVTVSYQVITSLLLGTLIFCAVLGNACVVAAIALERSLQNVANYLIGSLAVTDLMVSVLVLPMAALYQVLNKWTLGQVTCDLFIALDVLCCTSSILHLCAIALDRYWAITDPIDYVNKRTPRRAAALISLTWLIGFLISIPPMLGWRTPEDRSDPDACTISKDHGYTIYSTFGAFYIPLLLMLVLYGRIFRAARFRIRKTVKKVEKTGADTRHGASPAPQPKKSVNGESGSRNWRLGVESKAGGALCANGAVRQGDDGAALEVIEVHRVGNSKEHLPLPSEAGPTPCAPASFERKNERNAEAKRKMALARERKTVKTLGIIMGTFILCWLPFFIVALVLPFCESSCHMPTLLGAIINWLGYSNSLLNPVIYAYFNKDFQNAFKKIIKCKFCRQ
# T1 sequence (Q13258 whole entry): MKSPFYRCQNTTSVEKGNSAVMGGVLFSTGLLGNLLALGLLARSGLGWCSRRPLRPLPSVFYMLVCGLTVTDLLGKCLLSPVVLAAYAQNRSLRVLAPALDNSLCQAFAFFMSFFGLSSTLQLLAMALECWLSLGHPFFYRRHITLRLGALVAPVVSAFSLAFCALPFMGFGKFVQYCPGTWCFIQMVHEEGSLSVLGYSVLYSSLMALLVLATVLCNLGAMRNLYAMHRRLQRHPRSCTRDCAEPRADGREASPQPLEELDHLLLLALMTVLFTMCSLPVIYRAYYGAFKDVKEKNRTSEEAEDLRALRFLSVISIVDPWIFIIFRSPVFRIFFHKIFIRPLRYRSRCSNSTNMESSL
compound,measurement,setting,value
"CCN1C(=O)COc2nc(-c3ccc(C4(N)CC(O)C4)cc3)c(-c3ccccc3)cc21.O=C(O)C(O)C(O)C(=O)O [VAD044, 6-(4-(1-amino-3-hydroxycyclobutyl)phenyl)-1-ethyl-7-phenyl-1H-pyrido[2,3-b][1,4]oxazin-2(3H)-one L-tartrate]",activation at 10 µM,"DP; DP, 10 μM, read-out: AGONIST mean % increase in activity",-1.7%
same,inhibition at 10 µM,DP; [2],5.8%
same,activation at 10 µM,5-HT1A; [3],2.1%
same,inhibition at 10 µM,5-HT1A; [2],30.6%
same,activation at 10 µM,"CCR1; CCR1, 10 μM, read-out: AGONIST mean % increase in activity",0.2%
same,inhibition at 10 µM,CCR1; [2],9.5%
same,activation at 10 µM,"H3; H3, 10 μM, read-out: AGONIST mean % increase in activity",-0.6%
same,inhibition at 10 µM,H3; [2],3.5%
same,activation at 10 µM,"ADRB2; ADRB2, 10 μM, read-out: AGONIST mean % increase in activity",0.8%
same,inhibition at 10 µM,ADRB2; [2],6.1%
same,inhibition of mutated AKT forms,[1],not inhibited
same,activation at 10 µM,"C5aR; C5aR, 10 μM, read-out: AGONIST mean % increase in activity",-1.2%
same,inhibition at 10 µM,C5aR; [2],1.5%
same,activation at 10 µM,"H1; H1, 10 μM, read-out: AGONIST mean % increase in activity",-0.2%
same,inhibition at 10 µM,H1; [2],3.8%
same,activation at 10 µM,"ADRA1A; ADRA1A, 10 μM, read-out: AGONIST mean % increase in activity",-0.7%
same,inhibition at 10 µM,ADRA1A; [2],9.9%
same,activation at 10 µM,"AT1; AT1, 10 μM, read-out: AGONIST mean % increase in activity",-0.1%
same,inhibition at 10 µM,AT1; [2],5.4%
same,inhibition at 10 µM,AKT2,95%
same,activation at 10 µM,"CXCR1; CXCR1, 10 μM, read-out: AGONIST mean % increase in activity",-0.3%
same,inhibition at 10 µM,CXCR1; [2],3.7%
same,inhibition at 10 µM,AKT3,72%
same,activation at 10 µM,"IP1; IP1, 10 μM, read-out: AGONIST mean % increase in activity",1.1%
same,inhibition at 10 µM,IP1; [2],-2.6%
same,activation at 10 µM,"PAC1; PAC1, 10 μM, read-out: AGONIST mean % increase in activity",-0.6%
same,inhibition at 10 µM,PAC1; [2],1.1%
same,IC50,full length AKT2,95 nM
same,activation at 10 µM,"D1; D1, 10 μM, read-out: AGONIST mean % increase in activity",1.5%
same,inhibition at 10 µM,D1; [2],18.7%
same,activation at 10 µM,PAF; [3],-0.9%
same,inhibition at 10 µM,PAF; [2],21%
same,AGONIST mean % increase in activity,"CX3CR1; CX3CR1, 10 μM",0%
same,inhibition at 10 µM,CX3CR1; [2],0.6%
same,activation at 10 µM,PRP; [3],-0.5%
same,inhibition at 10 µM,PRP; [2],23.2%
same,activation at 10 µM,"FPR1; FPR1, 10 μM, read-out: AGONIST mean % increase in activity",-0.1%
same,inhibition at 10 µM,FPR1; [2],13.3%

# Reference: patent US12466839B2, “Allosteric AKT inhibitors for use in the treatment of Hereditary Hemorrhagic Telangiectasia” (VADERIS THERAPEUTICS AG, priority 2020, dated 2025)
